Data set [1] addresses BTK (Homo sapiens, UniProt Q06187). Kind of data set: BTK activity (autophosphorylation) in Mino cells, Western blot. In kind it is cell-based. The arrangement: endogenous in cells; host or cells: Mino cells. The note with it: anti-IgM activation, Western blot normalized to β-actin. As to the method: To assess the cellular efficacy of these compounds, we followed the inhibition of BTK autophosphorylation in Mino cells. After 1 h of pre-incubation with the inhibitors and B-cell activation with an anti-IgM antibody, BTK autophosphorylation was followed by Western blot.
The cell pellets were subjected to immunoblotting, and Western blots were performed for p-BTK, BTK, and β-actin.
Cell pellets were washed with ice-cold PBS and lysed using RIPA buffer (Sigma, R0278). […] Samples containing 50 μg total protein were prepared with 4× LDS sample buffer (NuPAGE, Thermo Scientific, NP0007) and 20 mM DTT, which were then resolved on a 4–20% Bis–Tris gel (GeneScript SurePAGE, M00657). […] An EZ-ECL Kit (Biological Industries, 20-500-1000) was used to detect HRP activity.

The next data set deals with IgM+/CD5+ cells. Kind of data set: TCL1 adoptive transfer mouse model for CLL. In kind it is in vivo. The following applies: after 2 weeks of treatment, vs untreated mice. The protocol: (§1) We tested compound 3c in the TCL1 adoptive transfer mouse model for CLL.[42] In this experiment, immune-competent healthy mice received an adoptive transfer of 4 × 10^7 TCL1 splenocytes obtained from full leukemic TCL1 transgenic mice by intravenous injection (Figure 4D). IgM+/CD5+ cells were monitored weekly, and treatment (or mock treatment) was started 4 weeks after transplantation when CD5+ were > 30% in the blood. The mice received a solution containing sulfamate 3c (0.16 mg/mL in 1% cyclodextrin water) ad libitum in the drinking water. […] Moreover, spleens were isolated from the mice after 2 weeks of treatment and quantified.
TCL1 mice for this model were generated as previously described.[42] For this experiment, TCL1 mice approximately 12 months of age with a malignant cell population higher than 60% in the PB were sacrificed. Their spleens were excised, and 4 × 10^7 cells resuspended in PBS^–/– were injected into the tail vein of 6 week old recipient mice. Progression of the disease was followed in the PB by using flow cytometry for the +IgM/+CD5 population. Mice with >30% IgM+/CD5+ cells were considered to be diseased and were used for further analysis.
Isolated cells were stained using specific antibodies (IgM-PE, CD5-APC, BioLegend) in staining buffer (0.5% bovine serum albumin in phosphate-buffered saline) for 30 min in 4 °C in dark then washed twice. […]

Data set [2] concerns the target T1, BTK (Mus musculus, UniProt P35991).
T1 construct: the dissected spleens were extracted with RIPA buffer and incubated with an ibrutinib alkyne analogue; from tissue; host or cells: spleen of mice with adoptively transferred TCL1 leukemic splenocytes
Kind of data set: BTK engagement in treated mice spleens. In kind it is in vivo. The following applies: spleen lysates, ibrutinib alkyne analogue, TAMRA-azide. The protocol: as §1
Pellets of harvested spleens were lysed using RIPA buffer (Sigma, R0278) and clarified at 21,000g for 15 min at 4 °C, and protein concentration was determined using BCA protein assay (Thermo Scientific, 23225). Lysates were diluted to 2 mg/mL, 50 μL per sample, and incubated for 1 h in room temperature with 1 μM probe 4 to label BTK. Lysates were then clicked to TAMRA-azide and imaged using ChemiDoc MP (546 nm) as described in the in-gel fluorescence protocol.

A further data set has as its system Mino cells. Kind of data set: isoDTB ABPP in Mino cells. In kind it is cell-based, human. The following applies: for isoDTB-ABPP H/L Ratio: mino cells, 1 µM compound, 2h.
Data set [3] is described as follows: Metabolic stability in human liver microsomes. The note with it: 5 min incubation.

Structures are written as SMILES. Entries after “also recorded” stand apart in the source; their conditions may differ.

Chain of BTK (Homo sapiens, UniProt Q06187) (Q06187 whole entry): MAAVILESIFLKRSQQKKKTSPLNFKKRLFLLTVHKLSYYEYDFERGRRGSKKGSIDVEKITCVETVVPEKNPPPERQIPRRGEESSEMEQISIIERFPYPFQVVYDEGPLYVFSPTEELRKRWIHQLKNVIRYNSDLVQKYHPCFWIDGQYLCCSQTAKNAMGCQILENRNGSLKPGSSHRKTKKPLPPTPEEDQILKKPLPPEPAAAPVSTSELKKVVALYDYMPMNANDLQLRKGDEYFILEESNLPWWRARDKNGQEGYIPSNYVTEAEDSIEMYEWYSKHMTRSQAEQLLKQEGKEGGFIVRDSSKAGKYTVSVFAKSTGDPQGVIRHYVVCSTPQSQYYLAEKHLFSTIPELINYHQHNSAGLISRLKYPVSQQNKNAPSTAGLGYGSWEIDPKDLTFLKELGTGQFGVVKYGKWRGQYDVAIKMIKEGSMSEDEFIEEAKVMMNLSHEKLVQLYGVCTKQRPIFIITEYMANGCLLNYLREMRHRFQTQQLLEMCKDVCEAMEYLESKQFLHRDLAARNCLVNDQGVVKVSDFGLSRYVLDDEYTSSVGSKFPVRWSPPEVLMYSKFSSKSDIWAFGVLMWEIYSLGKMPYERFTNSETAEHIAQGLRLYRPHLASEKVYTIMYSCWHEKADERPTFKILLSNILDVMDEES
T1 sequence (P35991 whole entry): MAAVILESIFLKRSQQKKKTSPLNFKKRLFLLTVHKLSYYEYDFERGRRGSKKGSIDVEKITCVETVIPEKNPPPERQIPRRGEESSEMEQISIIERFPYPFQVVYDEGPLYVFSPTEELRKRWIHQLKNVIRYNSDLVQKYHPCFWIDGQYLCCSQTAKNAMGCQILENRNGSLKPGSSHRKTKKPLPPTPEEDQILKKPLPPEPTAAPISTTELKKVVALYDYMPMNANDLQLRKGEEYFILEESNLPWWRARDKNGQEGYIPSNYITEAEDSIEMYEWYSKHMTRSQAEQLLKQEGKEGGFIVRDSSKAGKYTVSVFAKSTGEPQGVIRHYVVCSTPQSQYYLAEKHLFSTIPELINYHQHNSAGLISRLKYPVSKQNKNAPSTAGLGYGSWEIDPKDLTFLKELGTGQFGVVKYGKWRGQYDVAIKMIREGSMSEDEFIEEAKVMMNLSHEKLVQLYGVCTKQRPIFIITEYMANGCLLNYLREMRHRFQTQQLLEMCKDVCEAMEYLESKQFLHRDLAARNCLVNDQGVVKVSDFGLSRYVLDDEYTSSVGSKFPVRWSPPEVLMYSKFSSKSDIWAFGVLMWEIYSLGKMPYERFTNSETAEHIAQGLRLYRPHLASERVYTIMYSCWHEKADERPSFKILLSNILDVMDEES

In general, IC50 refers to the concentration needed to halve the response being measured. A higher IC50 goes with a need for much substance. `Nc1ncnc2c1c(-c1ccc(Oc3ccccc3)cc1)nn2[C@@H]1CCCN(C(=O)COS(=O)(=O)NCc2ccccc2)C1` [3d] registered an IC50 against BTK [1] of 164 nM.

Take `CNS(=O)(=O)OCC(=O)N1CCC[C@@H](n2nc(-c3ccc(Oc4ccccc4)cc3)c3c(N)ncnc32)C1` [3c]: the spleen size entry with IgM+/CD5+ cells was “decreased spleen size; also recorded: visually smaller”. At BTK [2], the “BTK engagement in vivo (probe labeling of spleen lysate)” value is listed as “do not show probe labeling”. Also, the “number of off-targets (H/L ratio > 2)” value in the data set on Mino cells (Mino cells, 1 μM, 2 h) was determined as 10. Besides, the “isoDTB-ABPP H/L Ratio” value was found to be 5.926 with Mino cells (P27708_C379) and 5.696 in the data set with Mino cells (P48643_C377). Moreover, in data set [3], the compound remaining intact entry is on record as “over 30%”. The compound also came in with an IC50 on BTK [1] of 3.6 nM.

(Values after article PMC9936582, “Sulfamate Acetamides as Self-Immolative Electrophiles for Covalent Ligand-Directed Release Chemistry” (Journal of the American Chemical Society, 2023).)
